Results: patent publication US20260210939A1, “MODIFIED OLFACTORY RECEPTORS” (GIVAUDAN SA, priority 2022, published 2026)
Marks after values point to notes of the source that are not given here.

Columns and labels:
Format in all cases: cell-based
OR1N2 = target: T1, OR1N2 (Homo sapiens, UniProt Q8NGR9, T287M/V230G/W23R); assay: CRE-luciferase assay, HEK293T cells expressing OR1N2 (wild-type / modified C-terminus)
T1 construct: Improved functional expression of modified OR-genes containing the truncated, optimized C-terminus; expressed in transfected cells; host or cells: HEK293T stably expressing human RTP1S(V227I) and RTP2(L220R)
T1 sequence (Q8NGR9 with tags, fused parts or gaps W23R/V230G/T287M): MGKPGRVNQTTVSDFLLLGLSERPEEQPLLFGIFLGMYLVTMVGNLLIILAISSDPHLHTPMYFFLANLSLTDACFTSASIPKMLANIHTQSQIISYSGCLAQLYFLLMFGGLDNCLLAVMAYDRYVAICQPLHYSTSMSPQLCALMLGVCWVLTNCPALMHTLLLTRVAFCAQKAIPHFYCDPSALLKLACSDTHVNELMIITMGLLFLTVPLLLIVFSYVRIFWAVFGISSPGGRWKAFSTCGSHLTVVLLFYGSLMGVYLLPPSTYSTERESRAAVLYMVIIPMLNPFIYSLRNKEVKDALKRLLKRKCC

OR5A1 = target: T2, OR5A1 (Homo sapiens, UniProt Q8NGJ0, I300V); assay: CRE-luciferase assay, HEK293T cells expressing OR5A1 (wild-type / modified C-terminus)
T2 construct: Improved functional expression of modified OR-genes containing the truncated, optimized C-terminus; expressed in transfected cells; host or cells: HEK293T stably expressing human RTP1S(V227I) and RTP2(L220R)
T2 sequence (Q8NGJ0 with tags, fused parts or gaps I300V): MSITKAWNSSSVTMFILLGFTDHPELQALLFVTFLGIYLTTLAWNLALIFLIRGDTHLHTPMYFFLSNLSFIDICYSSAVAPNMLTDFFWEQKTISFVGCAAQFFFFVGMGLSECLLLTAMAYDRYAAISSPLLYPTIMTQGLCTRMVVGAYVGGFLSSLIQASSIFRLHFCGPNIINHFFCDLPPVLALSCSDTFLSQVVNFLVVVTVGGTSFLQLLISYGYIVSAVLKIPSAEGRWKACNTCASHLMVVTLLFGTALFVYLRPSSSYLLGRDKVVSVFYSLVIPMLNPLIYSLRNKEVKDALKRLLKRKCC

OR10H5 = target: T3, OR10H5 (Homo sapiens, UniProt Q8NGA6); assay: CRE-luciferase assay, HEK293T cells expressing OR10H5 (wild-type / modified C-terminus)
T3 construct: Improved functional expression of modified OR-genes containing the truncated, optimized C-terminus; expressed in transfected cells; host or cells: HEK293T stably expressing human RTP1S(V227I) and RTP2(L220R)
T3 sequence (Q8NGA6 with tags, fused parts or gaps): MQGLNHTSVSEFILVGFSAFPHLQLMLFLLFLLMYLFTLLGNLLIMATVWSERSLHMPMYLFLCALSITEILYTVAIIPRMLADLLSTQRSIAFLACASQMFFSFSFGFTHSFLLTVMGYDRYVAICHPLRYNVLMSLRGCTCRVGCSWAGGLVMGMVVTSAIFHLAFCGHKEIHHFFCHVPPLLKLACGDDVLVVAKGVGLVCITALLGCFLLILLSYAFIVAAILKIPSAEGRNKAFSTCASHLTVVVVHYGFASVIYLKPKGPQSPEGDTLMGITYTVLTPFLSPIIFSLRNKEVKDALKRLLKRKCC
Source text: All tested receptors of Table 1 gave improved functional expression when the wild-type C-terminal domain was replaced with SEQ ID NO: 86. This functional expression was further improved when SEQ ID NO:86 was replaced with SEQ ID NO: 221 as shown for OR7C1 in Table 8 and for OR5B12 in Table 9. This additive improvement was further tested with OR10H5 (Table 18) and OR7A17 (Table 19). […] The full DNA sequences encoding the modified receptors are SEQ ID NO: 684 for OR10H5 and SEQ ID NO: 611 for OR7A17.

OR2J2 = target: T4, OR2J2 (Homo sapiens, UniProt O76002, A146V/A218T/A302I/G300K/H297E/H74Y); assay: Dose-response test of single lactones on OR2J2
T4 construct: expressed in transfected cells; transient transfection of pcDNA3.1(+) OR plasmid
T4 sequence (O76002 with tags, fused parts or gaps H74Y/A146V/A218T/H297E/G300K/A302I limits assumed): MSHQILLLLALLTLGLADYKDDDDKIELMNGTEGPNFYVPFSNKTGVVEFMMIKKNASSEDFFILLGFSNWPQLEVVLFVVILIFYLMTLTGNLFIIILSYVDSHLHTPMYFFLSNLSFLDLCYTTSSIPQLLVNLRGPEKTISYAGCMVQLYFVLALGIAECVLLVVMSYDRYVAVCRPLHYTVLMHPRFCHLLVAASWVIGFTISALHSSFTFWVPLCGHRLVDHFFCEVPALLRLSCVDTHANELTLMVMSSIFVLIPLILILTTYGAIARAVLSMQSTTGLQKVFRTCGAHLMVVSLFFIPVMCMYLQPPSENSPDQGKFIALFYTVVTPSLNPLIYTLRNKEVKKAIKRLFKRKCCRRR
Experimental: (§1) In a subsequent de-convultion experiment, the single ingredients were tested in a dose-response test on all the identified OR. […] Thus, OR2AP1 and OR2J2 are particularly strongly activated by the long-chain dodecalactone gamma, while OR10A3 is very sensitive to several longer chain lactones. […] Among the five OR, OR10A3 is the most sensitive.

OR10J1(M51I, I92M) = target: T5, OR10J1(M51I, I92M) (Homo sapiens, UniProt P30954, I103M/M62I); assay: Dose-response test of single lactones on OR10J1(M51I, I92M)
T5 construct: expressed in transfected cells; transient transfection of pcDNA3.1(+) OR plasmid
T5 sequence (P30954 with tags, fused parts or gaps M62I/I103M): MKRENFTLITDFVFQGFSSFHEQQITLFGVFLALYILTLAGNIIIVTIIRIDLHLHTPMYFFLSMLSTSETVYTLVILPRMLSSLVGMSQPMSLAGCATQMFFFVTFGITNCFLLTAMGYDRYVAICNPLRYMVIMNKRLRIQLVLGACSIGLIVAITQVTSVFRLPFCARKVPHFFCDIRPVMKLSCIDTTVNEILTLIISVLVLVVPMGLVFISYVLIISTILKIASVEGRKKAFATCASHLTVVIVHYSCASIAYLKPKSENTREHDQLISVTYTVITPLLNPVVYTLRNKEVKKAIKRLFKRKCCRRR
Experimental: as §1

[1] = target: T6, OR10A6(A117V, V140G, L287P) (Homo sapiens, UniProt Q8NH74, A117V/L287P/V140G); assay: Dose-response test of single lactones on OR10A6(A117V, V140G, L287P)
T6 construct: expressed in transfected cells; transient transfection of pcDNA3.1(+) OR plasmid
T6 sequence (Q8NH74 with tags, fused parts or gaps A117V/V140G/L287P limits assumed): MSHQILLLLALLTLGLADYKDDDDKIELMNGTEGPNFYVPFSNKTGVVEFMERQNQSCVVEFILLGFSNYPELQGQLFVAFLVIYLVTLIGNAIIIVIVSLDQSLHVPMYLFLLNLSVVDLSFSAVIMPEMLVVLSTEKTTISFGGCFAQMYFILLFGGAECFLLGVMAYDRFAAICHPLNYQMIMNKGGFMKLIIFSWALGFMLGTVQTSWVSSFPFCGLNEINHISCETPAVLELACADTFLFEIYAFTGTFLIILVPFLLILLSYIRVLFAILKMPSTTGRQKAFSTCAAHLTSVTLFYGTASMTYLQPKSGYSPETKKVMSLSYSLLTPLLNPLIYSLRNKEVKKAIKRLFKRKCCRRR
Experimental: as §1

OR10A3 = target: T7, OR10A3 (Homo sapiens, UniProt P58181); assay: Dose-response test of single lactones on OR10A3 (luciferase)
T7 construct: Class II OR library members with modified C-terminal domains; expressed in transfected cells
T7 sequence (P58181 with tags, fused parts or gaps): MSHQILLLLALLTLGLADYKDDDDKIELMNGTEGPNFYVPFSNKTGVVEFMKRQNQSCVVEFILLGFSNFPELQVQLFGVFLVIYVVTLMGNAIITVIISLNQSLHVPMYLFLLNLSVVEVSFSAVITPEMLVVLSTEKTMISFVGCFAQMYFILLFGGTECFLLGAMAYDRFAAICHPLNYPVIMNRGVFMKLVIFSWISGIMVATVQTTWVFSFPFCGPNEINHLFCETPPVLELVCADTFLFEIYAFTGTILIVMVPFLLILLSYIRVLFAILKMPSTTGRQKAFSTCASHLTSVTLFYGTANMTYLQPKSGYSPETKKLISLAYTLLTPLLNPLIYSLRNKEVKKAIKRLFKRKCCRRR
Experimental: as §1

OR2AP1 = target: T8, OR2AP1 (Homo sapiens, UniProt Q8NGE2); assay: Dose-response test of single lactones on OR2AP1
T8 construct: expressed in transfected cells; transient transfection of pcDNA3.1(+) OR plasmid
T8 sequence (Q8NGE2 with tags, fused parts or gaps limits assumed): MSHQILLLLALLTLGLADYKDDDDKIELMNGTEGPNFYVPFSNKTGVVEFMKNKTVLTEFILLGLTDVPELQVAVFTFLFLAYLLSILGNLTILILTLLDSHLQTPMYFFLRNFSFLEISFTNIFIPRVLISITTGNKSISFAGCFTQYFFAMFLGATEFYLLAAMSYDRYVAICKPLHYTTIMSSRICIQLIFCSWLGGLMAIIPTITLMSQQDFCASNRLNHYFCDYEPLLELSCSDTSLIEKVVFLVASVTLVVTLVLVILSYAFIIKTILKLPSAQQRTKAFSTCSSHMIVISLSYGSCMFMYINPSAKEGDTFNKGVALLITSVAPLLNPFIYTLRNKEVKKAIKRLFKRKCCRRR
Experimental: as §1

OR56A4 = target: T9, OR56A4 (Homo sapiens, UniProt Q8NGH8, T299N); assay: cell-based; settings: for activation of the wild-type: wild-type OR56A4
T9 construct: Improved functional expression of modified OR-genes containing the truncated, optimized C-terminus; expressed in transfected cells; host or cells: HEK293T stably expressing human RTP1S(V227I) and RTP2(L220R)
T9 sequence (Q8NGH8 with tags, fused parts or gaps T299N): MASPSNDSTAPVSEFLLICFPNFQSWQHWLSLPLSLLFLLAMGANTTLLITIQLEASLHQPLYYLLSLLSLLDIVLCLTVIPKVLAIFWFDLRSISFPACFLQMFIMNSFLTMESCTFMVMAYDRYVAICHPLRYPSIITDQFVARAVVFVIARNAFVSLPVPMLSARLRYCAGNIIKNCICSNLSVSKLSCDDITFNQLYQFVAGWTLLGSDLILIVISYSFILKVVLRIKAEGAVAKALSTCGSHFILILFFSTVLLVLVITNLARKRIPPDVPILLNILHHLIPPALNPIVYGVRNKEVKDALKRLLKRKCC
Experimental: Activation of OR56A4 by acids of different chain length was further tested. […] Replacing the wild-type with the C-terminal sequence of the functional OR51E1 did reduce activity. However, using the optimized sequence form Examples 1-5 led to a strong signal and much lower detection threshold upon addition of all three acids.
These two improvements were further combined and the combination was tested on OR52A5 and two further class I receptors. […] In the case of OR52A4, 4-ethyloctanoic acid, which is detected at low concentrations by the human nose, is detected with a high luciferase response already at 0.19 μM by the receptor with the C-terminal modification showing very sensitive detection of this carboxylic acid by the modified class I receptor.

SMILES | EC2 (concentration for 2-fold luciferase induction) (OR2J2) | EC2 (concentration for 2-fold luciferase induction) (OR10J1(M51I, I92M)) [µM] | EC2 (concentration for 2-fold luciferase induction) [1] [µM] | EC10, concentration for 10-fold OR activation (OR10A3) [μM] | EC2 (concentration for 2-fold luciferase induction) (OR2AP1) [µM] | other results
O=C1CCCCCCCC=CCCCCCCO1 [Ambrettolide] |  |  |  |  |  | Comments on efficacy (OR1N2): 1.5; Detection threshold; concentration for 2-fold induction (OR1N2; changed C-term. SEQ ID NO: 86): 0.26 µM; Fold-improvement potency (OR1N2; changed C-term. vs wild-type): 1.5; Fold-improvement threshold (OR1N2; changed C-term. vs wild-type): 5.2; Detection threshold; concentration for 2-fold induction (OR1N2; wild-type): 1.33 µM
CC(=O)/C=C/C1=C(C)CCCC1(C)C [Beta-ionone] |  |  |  |  |  | Comments on efficacy (OR5A1): 4-fold lower; Detection threshold; concentration for 2-fold induction (OR5A1; changed C-term. SEQ ID NO: 86): 3.2 µM; Fold-improvement potency (OR5A1; changed C-term. vs wild-type): 1.8; Fold-improvement threshold (OR5A1; changed C-term. vs wild-type): 5.9; Detection threshold; concentration for 2-fold induction (OR5A1; wild-type): 19.1 µM; EC50 (OR5A1; wild-type): 5.5 µM
Cc1ccc2c(c1)OCC(=O)CO2 [Calone] |  |  |  |  |  | Comments on efficacy (OR10H5): 3-fold lower; Detection threshold; concentration for 2-fold induction (OR10H5; changed C-term. SEQ ID NO: 86): 24.3 µM; Fold-improvement threshold (OR10H5; changed C-term. vs wild-type): 2.5; Fold-improvement potency (OR10H5; changed C-term. vs wild-type, higher EC50 due to much higher efficacy of optimized C-terminus): 0.7 *; Detection threshold; concentration for 2-fold induction (OR10H5; wild-type): 60.1 µM
CCCCCC1CCCC(=O)O1 (stereo not shown) [Decalactone delta] | 98.89 µM | 31.73 | 5.31 | 2.10 |  | 
CCCCCCC1CCC(=O)O1 (stereo not shown) [Decalactone gamma] | 3.27 µM | 3.63 | 1.62 | 0.84 | 33.66 | 
CCCCCCCC1CCCC(=O)O1 (stereo not shown) [Dodecalactone delta] | 35.12 µM | 31.38 | 1.11 | 2.59 | 15.76 | 
CCCCCCCCC1CCC(=O)O1 (stereo not shown) [Dodecalactone gamma] | 1.41 µM | 5.31 | 0.48 | 0.85 | 1.31 | 
CC1=CCC(C(C)CC2CCCC2=O)CC1 (stereo not shown) [Nectaryl] | inactive |  | 1.12 | 2.32 | 19.72 | 
CCCCCC1CCC(=O)O1 (stereo not shown) [Nonalactone gamma] | 12.85 µM | 11.14 | 11.34 | 2.83 |  | 
CCCCC1CCC(=O)O1 (stereo not shown) [Octalactone gamma] | 65.20 µM | 101.73 |  | 26.93 |  | 
CCCCCCCC1CCC(=O)O1 (stereo not shown) [Undecalactone gamma] | 0.71 µM | 2.11 | 0.34 | 0.28 | 6.53 | 
CCCCCCCCCCC(=O)O [Undecanoic acid] |  |  |  |  |  | Fold-improvement potency (OR56A4; changed C-term. vs wild-type): 5.1; EC50 (OR56A4; wild-type): 114 µM; activation of the wild-type (OR56A4): activated at high concentration
CCCCCCCCCC(=O)O [decanoic acid] |  |  |  |  |  | activation of the wild-type (OR56A4): activated at high concentration
